PMC9995120, “Drug specificity and affinity are encoded in the probability of cryptic pocket opening in myosin motor domains” (eLife, 2023)

Key:
[1] = target: T1, Myh7b (Homo sapiens, UniProt A7E2Y1); test: NADH-linked actin-activated ATPase assay with purified recombinant S1; type: biochemical
T1 construct: with actin (porcine ventricles); endogenous C2C12 light chains
T1 sequence (A7E2Y1 43-892): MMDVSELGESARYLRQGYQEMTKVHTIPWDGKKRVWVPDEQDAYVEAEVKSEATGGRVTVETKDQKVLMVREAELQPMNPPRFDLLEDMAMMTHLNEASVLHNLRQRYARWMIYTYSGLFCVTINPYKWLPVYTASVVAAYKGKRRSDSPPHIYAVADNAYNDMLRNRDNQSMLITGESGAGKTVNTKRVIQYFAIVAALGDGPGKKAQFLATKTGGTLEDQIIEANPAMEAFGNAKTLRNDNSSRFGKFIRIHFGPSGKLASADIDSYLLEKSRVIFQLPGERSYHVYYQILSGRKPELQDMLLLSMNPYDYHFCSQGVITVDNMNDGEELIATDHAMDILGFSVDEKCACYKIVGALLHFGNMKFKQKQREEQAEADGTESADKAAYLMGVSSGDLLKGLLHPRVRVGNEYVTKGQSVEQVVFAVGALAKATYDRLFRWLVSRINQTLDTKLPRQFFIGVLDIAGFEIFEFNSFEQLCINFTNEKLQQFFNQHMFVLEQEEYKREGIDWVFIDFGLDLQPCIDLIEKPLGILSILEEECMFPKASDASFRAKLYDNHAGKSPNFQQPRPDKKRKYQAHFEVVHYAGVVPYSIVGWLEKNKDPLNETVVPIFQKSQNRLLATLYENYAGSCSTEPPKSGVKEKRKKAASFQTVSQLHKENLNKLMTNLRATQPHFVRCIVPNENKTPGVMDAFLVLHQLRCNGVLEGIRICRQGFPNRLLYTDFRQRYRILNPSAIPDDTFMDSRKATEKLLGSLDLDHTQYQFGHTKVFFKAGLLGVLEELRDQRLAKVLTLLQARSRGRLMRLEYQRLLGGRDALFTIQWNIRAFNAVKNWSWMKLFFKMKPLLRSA

[2] = target: T2, β-cardiac myosin (Homo sapiens, UniProt P12883); test: as above; type: biochemical
T2 construct: gene MYH7; with actin (porcine ventricles); endogenous C2C12 light chains
T2 sequence (P12883 1-842): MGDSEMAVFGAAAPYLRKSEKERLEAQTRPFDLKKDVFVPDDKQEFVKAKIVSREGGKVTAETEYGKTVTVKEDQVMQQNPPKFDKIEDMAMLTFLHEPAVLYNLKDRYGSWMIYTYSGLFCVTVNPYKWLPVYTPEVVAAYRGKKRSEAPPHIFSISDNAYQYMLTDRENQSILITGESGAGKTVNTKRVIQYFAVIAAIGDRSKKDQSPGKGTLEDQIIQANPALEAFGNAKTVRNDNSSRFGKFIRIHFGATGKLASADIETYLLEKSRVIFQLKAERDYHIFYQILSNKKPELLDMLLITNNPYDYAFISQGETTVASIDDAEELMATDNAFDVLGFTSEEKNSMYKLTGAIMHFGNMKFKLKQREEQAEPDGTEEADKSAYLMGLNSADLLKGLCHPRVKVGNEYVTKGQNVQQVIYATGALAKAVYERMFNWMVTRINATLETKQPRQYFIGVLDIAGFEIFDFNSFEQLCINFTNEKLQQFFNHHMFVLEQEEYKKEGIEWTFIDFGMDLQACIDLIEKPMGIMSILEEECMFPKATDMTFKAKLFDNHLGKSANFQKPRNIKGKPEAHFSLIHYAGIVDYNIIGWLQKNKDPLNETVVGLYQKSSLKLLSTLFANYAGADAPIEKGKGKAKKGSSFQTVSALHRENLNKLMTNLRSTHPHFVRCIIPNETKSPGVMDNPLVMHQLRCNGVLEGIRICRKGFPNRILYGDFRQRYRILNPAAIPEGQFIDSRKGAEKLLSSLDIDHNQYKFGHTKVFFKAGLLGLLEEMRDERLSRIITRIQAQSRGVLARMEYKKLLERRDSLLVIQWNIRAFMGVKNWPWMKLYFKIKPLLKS
From the text: NADH-linked actin-activated ATPase assay with purified recombinant S1 on β-cardiac myosin | we measured the IC50 value for β-cardiac myosin S1.

IC50 [1]: 360 ± 80 nM
IC50 [2]: 1120 ± 290 nM
Compound: Cc1ccc2c(c1)C(=O)[C@]1(O)CCN(c3ccccc3)C1=N2 [Blebbistatin]
